From patent US20060063162A1, “Biological marker for inflammation” (priority 2004, published 2006)

Legend:
Format in all cases: cell-based, human
[1] = tested on: PSG expression in endothelial cells from artery; assay: Microarray analysis of PSG gene expression in coronary artery endothelial cells after atherogenic stimuli; settings: after treatment
[2] = tested on: PSG expression in coronary arterial smooth muscle cells; assay: Microarray analysis of PSG gene expression in coronary artery smooth muscle cells after atherogenic stimuli; settings: for PSG1 expression response / PSG 2 expression / PSG6 expression: SMCs from coronary artery; for PSG expression: coronary arterial smooth muscle cells, after treatment
Text: (§1) Vein and artery respond differently to atherogenic lesion under different conditions. […] However, venous bypass grafts can develop accelerated atherosclerosis in vein graft disease for patients after bypass surgery. […] This could possibly be explained by the different roles of endothelial and smooth muscle cells in the development of atherosclerosis. Endothelial cells (EC) are critical in the initiation of atherosclerosis, while smooth muscle cells (SMC) are closely related to the evolution of the atheroma. The global gene expression responses to various atherogenic stimulations between human venous and arterial cells have been determined to identify genes that may contribute to different susceptibilities to atherosclerosis.
(§2) When gene expression of untreated saphenous vein endothelial cells (SVEC) and coronary artery endothelial cells (CAEC) were compared by microarray analysis, five isoforms (PSG1, PSG3, PSG6, PSG7 and PSG9) out of 9 isoforms in the arrays were higher (>1.5 fold and P<0.005) in SVEC than CAEC. In untreated saphenous vein smooth muscle cells (SVSM) and coronary artery smooth muscle cells (CASM), all 9 isoforms of PSGs in the arrays are expressed higher in SVSM than CASM (See Table 1). It is unlikely a false positive result from arrays, since the result was obtained from 4 separate primary cultures from two-donors and more than 5 microarray data sets, and multiple PSG isoforms had similar changes. […] In basal state, PSG expression is higher in vein than artery.
Oxidized LDL (OxLDL), a key atherogenic factor, pro-inflammatory cytokines TNFα and IL1β, as well as cytokines regulating cell proliferation, differentiation and migration like PDGF and TGFβ all up-regulate PSG expression in coronary arterial smooth muscle cells.

[3] = tested on: PSG expression in endothelial cells from vein; assay: Microarray analysis of PSG gene expression in saphenous vein endothelial cells after atherogenic stimuli; settings: after treatment
Text: as §1
When gene expression of untreated saphenous vein endothelial cells (SVEC) and coronary artery endothelial cells (CAEC) were compared by microarray analysis, five isoforms (PSG1, PSG3, PSG6, PSG7 and PSG9) out of 9 isoforms in the arrays were higher (>1.5 fold and P<0.005) in SVEC than CAEC. In untreated saphenous vein smooth muscle cells (SVSM) and coronary artery smooth muscle cells (CASM), all 9 isoforms of PSGs in the arrays are expressed higher in SVSM than CASM (See Table 1). […]

[4] = tested on: PSG expression in SMCs from saphenous vein; assay: Microarray analysis of PSG gene expression in saphenous vein smooth muscle cells after atherogenic stimuli
Text: as §1, §2
The gene expression of PSG isoforms is quite different between the two SMCs. In SMCs from saphenous vein, TGFβ and TNFα down-regulate the expression of PSG1. TGFβ also down-regulates PSG9.

Substance: IL1β: pro-inflammatory cytokine
- PSG expression [1]: No significant change
- PSG1 expression response [2]: opposite responses
- PSG 2 expression [2]: up-regulated
- PSG6 expression [2]: up-regulated
- PSG expression [2]: up-regulate
- PSG expression [3]: No significant change

Substance: PDGF
- PSG 2 expression [2]: up-regulated
- PSG6 expression [2]: up-regulated
- PSG expression [2]: up-regulate

Substance: TGFβ
- PSG1 expression [4]: down-regulate
- PSG9 expression [4]: down-regulates
- PSG1 expression response [2]: opposite responses
- PSG 2 expression [2]: up-regulated
- PSG6 expression [2]: up-regulated
- PSG expression [2]: up-regulate

Substance: TNFα
- PSG expression [1]: No significant change
- PSG1 expression [4]: down-regulate
- PSG 2 expression [2]: up-regulated
- PSG6 expression [2]: up-regulated
- PSG expression [2]: up-regulate
- PSG expression [3]: No significant change
